Source: US8231721B2, “Antifungal liquid formulations” (LANXESS Deutschland GmbH, priority 2008, dated 2012)

Assay: Solubility of IPBC in Rhodiasolv DIB and PEG 300 (HPLC of supernatant)
Assay type: physicochemical
Details: room temperature, after-stirred 12 h, supernatant by HPLC
Protocol: Solubility of IPBC in Rhodiasolv DIB and PEG 300
The solvent was introduced as initial charge at room temperature, and IPBC was added until a sediment persisted. It was after-stirred for a further 12 h, the solid was centrifuged off and the remaining supernatant was analyzed by means of HPLC.

## CCCCNC(=O)OCC#CI [IPBC, 3-iodopropargyl butylcarbamate]
  solubility of IPBC in Rhodiasolv DIB: 36.1 % by weight
  solubility of IPBC in polyethylene glycol 300: 44.9 % by weight
